From patent publication US20150315179A1, “COMPOUNDS AND METHODS OF TREATING NEUROLOGICAL DISORDERS” (Torrey Pines Institute For Molecular Studies, priority 2014, published 2015)

Tested on: PI3Kα, MAPK, PLC-γ, P75NTR pathways
Test: Signal transduction analysis, NT2 cells
Type: cell-based, human
Description: (2). THPI-244 increases sAPPα by a novel mechanism of upregulating TrkA, a neurotrophic receptor. Therefore, in addition to increasing neuroprotective sAPPα and decreasing toxic Aβ, THPI-244 mediated increased TrkA protein levels are expected to provide neurotrophic support. Following the validation of the effect of THPI-244 in increasing sAPPα levels in CHO cells, NT2 cells, AD fibroblasts and human primary neurons, we were interested in identifying the molecular target of THPI-244 for unraveling the molecular mechanism by which it increases sAPPα which in turn can predict toxicity profile and whether to pursue long-term studies. Increased protein levels of both native and phosphorylated form of TrkA in NT2 cells and mouse brains by THPI-244 validated TrkA as the target.

SMILES: O=C(Cc1ccccc1)N[C@H](CNc1nc(CN2CCN(C(=O)Cc3ccccc3)CC2)cs1)c1ccccc1 [THPI-244]
- MAPK or PLC-γ pathways: not
- PI3Kα pathway: activation
